# Measurements published in patent publication US10919785B2, “Hydraulic conveyor of floating objects provided with a device for sanitising conveying composition, plant provided with such a conveyor and sanitising method” (MAF AGROBOTIC, priority 2016, dated 2021).
# Assays:
# [1] = assay type: physicochemical; conditions: 250 μg/l
# From the text: A semi-industrial pilot device in accordance with one aspect of the invention comprises a tank for recirculating water to be treated of a volume of 1000 l, a circulation pump ensuring a circulation flow of the water to be treated in a sanitising device with a flow rate between 4 m^3 to 8 m^3/h. The sanitising device comprises a photolysis chamber comprising an inlet for water from the recirculation tank and an outlet for sanitised water directed to the recirculation tank. The photolysis chamber is formed of a rigid tubular envelope, of which the external wall is opaque to light and forming an inner space suitable for receiving five fluorescent tubes with a longitudinal axis extending in parallel with the longitudinal axis of the rigid tubular envelope. The inner volume of the decontamination reactor is in the order of […].
# The five fluorescent tubes are tubes of 200 W emitting light at a wavelength of 254 nm and arranged longitudinally in the tubular envelope at the five points of a regular pentagon and in contact with the water to be treated flowing in the photolysis chamber. In this configuration of the sanitising device, the water to be sanitised flowing in contact with the five fluorescent tubes is subjected to substantially homogeneous illumination in the order of 500 mJ/cm^2 for a circulation flow rate of water to be sanitised in the order of 6 m^3/h. The semi-industrial pilot device also comprises a tank for storing an aqueous solution of hydrogen peroxide (H2O2) provided with a pump for distributing said solution in the circulation flow of water to be sanitised issuing into the circuit of water to be sanitised upstream of and in proximity to the photolysis chamber. The concentration of the hydrogen peroxide in the aqueous solution of hydrogen peroxide is between 2 m g/l and 13 mg/l. The set-point flow rate of the pump for distributing solution of H2O2 is kept at 4 l/h.
# The flow rate of the recycling pump is 6 m^3/h and the initial boscalid concentration in the recirculation tank is 250 μg/l. The 5 lamps of the sanitising device are switched on. […]
# [2] = Example 3: UV/hydrogen peroxide sanitising of 90 m^3 apple conveying water, six photolysis chambers in series; assay type: physicochemical
# From the text: A hydraulic conveyor of a plant for sorting and packaging apples is selected containing a volume of 90 m^3 of water as composition for conveying Ariane, Rosy Glow and Pink Lady apples. A flow rate of conveying composition of 36 m^3/h is established in the external circuit and a flow rate of photoreactive composition of […] is established, the photoreactive composition being an aqueous solution of hydrogen peroxide at an initial concentration of 400 g/l. Under these flow conditions, all of the volume of the conveying composition of the hydraulic conveyor is theoretically treated within 2.5 hours. The composition at the inlet of the sanitising device has an initial hydrogen peroxide proportion in the order of 3 ppm sufficient to allow the decontamination of the composition at the outlet of the sanitising device formed of six photolysis chambers mounted in series, each chamber comprising five fluorescent tubes with an individual power of 200 W.
# The results obtained are shown in Table 2 hereinafter in which the concentration values of boscalid from the apples conveyed with the composition to be sanitised at the inlet of the sanitising device (EC) and at the outlet of sanitising device (SC) are given in μg/l. The column SE/EC represents the ratio multiplied by 100 of the boscalid concentration at the outlet of the sixth chamber of the photolysis tank to the boscalid concentration at the inlet of the photolysis tank (EC). The column C/C0 represents the ratio of the boscalid concentration measured at the inlet of the sanitising device over time to the initial boscalid concentration (t=0).
# [3] = assay type: physicochemical; conditions: 10 min, 25 μg/l
# From the text: The semi-industrial pilot device comprises a tank for composition to be treated of a volume of 1000 l, a circulation pump ensuring a flow of composition to be treated in a sanitising device with a flow rate of 6 m^3/h. The sanitising device comprises a single photolysis chamber comprising an inlet for water from the tank of composition to be treated and an outlet for sanitised water directed to the tank of composition to be treated. The composition to be treated comprises boscalid at an initial concentration of 25 μg/l and an initial hydrogen peroxide concentration of 2 mg/l.
# The photolysis chamber is formed of a rigid tubular envelope, of which the external wall is opaque to light and forming an inner space suitable for receiving five fluorescent tubes with a longitudinal axis extending in parallel with the longitudinal axis of the rigid tubular envelope. The inner volume of the decontamination reactor is in the order of 32 l. The five fluorescent tubes are tubes of 200 W emitting light at a wavelength of 254 nm and arranged longitudinally in the tubular envelope at the five points of a regular pentagon and in contact with the water to be treated flowing in the photolysis chamber.
# After 10 minutes of operation of the semi-industrial pilot device, almost all of the composition to be treated has been illuminated in the photolysis chamber. […]
compound,measurement,setting,value
O=C(Nc1ccccc1-c1ccc(Cl)cc1)c1cccnc1Cl [boscalid],final rate of degradation,[1],95%
same,initial degradation,[1],equivalent to that obtained with the addition of hydrogen peroxide at the concentration of 13 mg/l
same,degradation of the initial boscalid,[1]; 1 h,10%
same,boscalid concentration at the inlet of the sanitising device (EC),[2]; time 0 hours,2.83 µg/L
same,percent boscalid removed between inlet and outlet of the sanitising device (100 x (1 - SC/EC)),[2]; time 0 hours,100%
same,boscalid concentration at the inlet of the sanitising device (EC),[2]; time 4 hours,4.76 µg/L
same,boscalid concentration at the outlet of the sanitising device (SC),[2]; time 4 hours,0.065 µg/L
same,percent boscalid removed between inlet and outlet of the sanitising device (100 x (1 - SC/EC)),[2]; time 4 hours,98.6%
same,boscalid concentration at the inlet of the sanitising device (EC),[2]; time 7 hours,2.84 µg/L
same,boscalid concentration at the outlet of the sanitising device (SC),[2]; time 7 hours,0.206 µg/L
same,percent boscalid removed between inlet and outlet of the sanitising device (100 x (1 - SC/EC)),[2]; time 7 hours,92.8%
same,C/C0 (inlet boscalid concentration over initial concentration),[2]; time 7.1 hours,1
same,boscalid concentration at the inlet of the sanitising device (EC),[2]; time 7.1 hours,4.19 µg/L
same,percent boscalid removed between inlet and outlet of the sanitising device (100 x (1 - SC/EC)),[2]; time 7.1 hours,100%
same,C/C0 (inlet boscalid concentration over initial concentration),[2]; time 10.5 hours,0.41
same,boscalid concentration at the inlet of the sanitising device (EC),[2]; time 10.5 hours,1.73 µg/L
same,boscalid concentration at the outlet of the sanitising device (SC),[2]; time 10.5 hours,0.062 µg/L
same,percent boscalid removed between inlet and outlet of the sanitising device (100 x (1 - SC/EC)),[2]; time 10.5 hours,96.4%
same,C/C0 (inlet boscalid concentration over initial concentration),[2]; time 12.5 hours,0.32
same,boscalid concentration at the inlet of the sanitising device (EC),[2]; time 12.5 hours,1.35 µg/L
same,percent boscalid removed between inlet and outlet of the sanitising device (100 x (1 - SC/EC)),[2]; time 12.5 hours,100%
same,C/C0 (inlet boscalid concentration over initial concentration),[2]; time 14.75 hours,0.41
same,boscalid concentration at the inlet of the sanitising device (EC),[2]; time 14.75 hours,1.71 µg/L
same,boscalid concentration at the outlet of the sanitising device (SC),[2]; time 14.75 hours,0.058 µg/L
same,percent boscalid removed between inlet and outlet of the sanitising device (100 x (1 - SC/EC)),[2]; time 14.75 hours,96.6%
same,C/C0 (inlet boscalid concentration over initial concentration),[2]; time 17.25 hours,0.28
same,boscalid concentration at the inlet of the sanitising device (EC),[2]; time 17.25 hours,1.18 µg/L
same,boscalid concentration at the outlet of the sanitising device (SC),[2]; time 17.25 hours,0.040 µg/L
same,percent boscalid removed between inlet and outlet of the sanitising device (100 x (1 - SC/EC)),[2]; time 17.25 hours,96.6%
same,C/C0 (inlet boscalid concentration over initial concentration),[2]; time 19.25 hours,0.45
same,boscalid concentration at the inlet of the sanitising device (EC),[2]; time 19.25 hours,1.88 µg/L
same,percent boscalid removed between inlet and outlet of the sanitising device (100 x (1 - SC/EC)),[2]; time 19.25 hours,100%
same,C/C0 (inlet boscalid concentration over initial concentration),[2]; time 22.75 hours,0.25
same,boscalid concentration at the inlet of the sanitising device (EC),[2]; time 22.75 hours,1.07 µg/L
same,boscalid concentration at the outlet of the sanitising device (SC),[2]; time 22.75 hours,0.064 µg/L
same,percent boscalid removed between inlet and outlet of the sanitising device (100 x (1 - SC/EC)),[2]; time 22.75 hours,94%
same,C/C0 (inlet boscalid concentration over initial concentration),[2]; time 24.75 hours,0.15
same,boscalid concentration at the inlet of the sanitising device (EC),[2]; time 24.75 hours,0.64 µg/L
same,boscalid concentration at the outlet of the sanitising device (SC),[2]; time 24.75 hours,0.057 µg/L
same,percent boscalid removed between inlet and outlet of the sanitising device (100 x (1 - SC/EC)),[2]; time 24.75 hours,91.2%
same,C/C0 (inlet boscalid concentration over initial concentration),[2]; time 28.75 hours,0.16
same,boscalid concentration at the inlet of the sanitising device (EC),[2]; time 28.75 hours,0.66 µg/L
same,boscalid concentration at the outlet of the sanitising device (SC),[2]; time 28.75 hours,0.039 µg/L
same,percent boscalid removed between inlet and outlet of the sanitising device (100 x (1 - SC/EC)),[2]; time 28.75 hours,94%
same,C/C0 (inlet boscalid concentration over initial concentration),[2]; time 29.75 hours,0.22
same,boscalid concentration at the inlet of the sanitising device (EC),[2]; time 29.75 hours,0.93 µg/L
same,percent boscalid removed between inlet and outlet of the sanitising device (100 x (1 - SC/EC)),[2]; time 29.75 hours,100%
same,C/C0 (inlet boscalid concentration over initial concentration),[2]; time 32.25 hours,0.19
same,boscalid concentration at the inlet of the sanitising device (EC),[2]; time 32.25 hours,0.79 µg/L
same,boscalid concentration at the outlet of the sanitising device (SC),[2]; time 32.25 hours,0.040 µg/L
same,percent boscalid removed between inlet and outlet of the sanitising device (100 x (1 - SC/EC)),[2]; time 32.25 hours,95%
same,C/C0 (inlet boscalid concentration over initial concentration),[2]; time 34.75 hours,0.17
same,boscalid concentration at the inlet of the sanitising device (EC),[2]; time 34.75 hours,0.73 µg/L
same,boscalid concentration at the outlet of the sanitising device (SC),[2]; time 34.75 hours,0.043 µg/L
same,percent boscalid removed between inlet and outlet of the sanitising device (100 x (1 - SC/EC)),[2]; time 34.75 hours,94.1%
same,rate of degradation of the initial boscalid,[3],58%
